# Read-outs that look alike come from different tables or passages of the source.
# Columns and labels:
# α4β2 nAChRs = α4β2 nAChRs (Rattus norvegicus, UniProt P09483+P12390); test: biochemical; assay type: binding
# [1] = Table 1, [3H]epibatidine binding, rat cerebral cortex
# [2] = read-out: α4β2 [^3H]Epibatidine (Ki), Table 1, male rat cerebral cortex homogenate, 0.5-2 nM [3H]epibatidine, Ki from IC50 by Cheng-Prusoff
# α4β2 nAChRs, sequence (P09483 31-630): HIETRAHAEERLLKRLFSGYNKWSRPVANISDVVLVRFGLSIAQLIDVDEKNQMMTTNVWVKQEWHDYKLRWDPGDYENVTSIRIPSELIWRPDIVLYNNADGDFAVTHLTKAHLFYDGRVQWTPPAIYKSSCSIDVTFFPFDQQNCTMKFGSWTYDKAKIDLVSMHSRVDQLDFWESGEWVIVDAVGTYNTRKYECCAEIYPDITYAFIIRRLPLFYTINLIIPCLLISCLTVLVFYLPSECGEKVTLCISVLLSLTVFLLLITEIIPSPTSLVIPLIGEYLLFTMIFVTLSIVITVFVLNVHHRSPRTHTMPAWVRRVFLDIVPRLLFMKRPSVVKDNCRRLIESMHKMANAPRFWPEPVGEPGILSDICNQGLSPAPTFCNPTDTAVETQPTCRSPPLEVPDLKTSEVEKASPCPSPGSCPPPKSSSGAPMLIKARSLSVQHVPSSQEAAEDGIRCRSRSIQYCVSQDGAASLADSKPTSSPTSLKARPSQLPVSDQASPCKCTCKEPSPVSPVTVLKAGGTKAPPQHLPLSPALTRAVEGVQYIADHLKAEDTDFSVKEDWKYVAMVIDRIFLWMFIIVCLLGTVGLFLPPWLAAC
# α4β2 nAChRs, sequence (P12390 25-500): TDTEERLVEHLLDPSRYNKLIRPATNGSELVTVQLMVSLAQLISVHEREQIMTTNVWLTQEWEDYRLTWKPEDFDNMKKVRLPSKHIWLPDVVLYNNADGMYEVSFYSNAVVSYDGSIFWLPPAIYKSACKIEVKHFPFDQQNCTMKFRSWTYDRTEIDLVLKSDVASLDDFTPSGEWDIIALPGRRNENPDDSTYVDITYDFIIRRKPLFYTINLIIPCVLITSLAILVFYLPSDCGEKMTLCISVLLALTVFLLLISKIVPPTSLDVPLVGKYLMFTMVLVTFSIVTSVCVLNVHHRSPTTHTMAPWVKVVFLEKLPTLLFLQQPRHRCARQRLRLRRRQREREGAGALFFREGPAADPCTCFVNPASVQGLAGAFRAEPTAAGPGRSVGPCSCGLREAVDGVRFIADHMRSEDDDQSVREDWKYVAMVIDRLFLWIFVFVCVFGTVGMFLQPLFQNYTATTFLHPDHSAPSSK
SMILES,Hill Slope (α4β2 nAChRs; [1]),Ki (α4β2 nAChRs),other results
Ic1cncc(C2CC3CCC2N3)c1 (centres unmarked) [compound 41],0.9 ± 0.02,–,Ki (α4β2 nAChRs; [2]): 0.059 ± 0.001 nM
Nc1ccc(C2CC3CCC2C3)cn1 (centres unmarked) [compound 54],–,2200 nM,Hill Slope (α4β2 nAChRs): 1.1
OC1C2CCC1C(c1ccc(Cl)nc1)C2 (centres unmarked) [compound 50],–,> 1000 nM,–
Clc1ncc(C2CC3CCC2N3)cc1Br (centres unmarked) [RTI-7527-53],0.95 ± 0.09,–,Ki (α4β2 nAChRs; [2]): 0.013 ± 0.001 nM
Clc1cc(C2CC3CCC2N3)cnc1Cl (centres unmarked) [RTI-7527-5],0.87 ± 0.04,0.015 ± 0.001 nM,melting point: 75 to 80 °C
Fc1ccc(C2CC3CCC2N3)cn1 (centres unmarked) [compound 13],0.9 ± 0.02,–,Ki (α4β2 nAChRs; [2]): 0.027 ± 0.001 nM
Clc1ncc(C2CC3CCC2N3)cc1-c1ccccc1 (centres unmarked) [RTI-7527-2],0.81 ± 0.02,–,Ki (α4β2 nAChRs; [2]): 0.021 ± 0.005 nM
Oc1ncc(C2CC3CCC2N3)cc1-c1ccccc1 (centres unmarked) [compound 29],–,51.9 ± 2 nM,Hill Slope (α4β2 nAChRs): 1.04 ± 0.07
Fc1cncc(C2CC3CCC2N3)c1 (centres unmarked) [compound 36],0.9 ± 0.01,–,Ki (α4β2 nAChRs; [2]): 0.037 ± 0.001 nM
CN1C2CCC1C(c1ccc(Cl)nc1)C2 (centres unmarked) [compound 11],–,22.8 ± 0.001 nM,"Hill Slope (α4β2 nAChRs; second table (structures A, B, C), [3H]epibatidine binding, rat cerebral cortex): 1.07 ± 0.05; melting point: 100 to 102 °C"
Brc1cc(C2CC3CCC2N3)cnc1I (centres unmarked) [RTI-7527-50],0.96 ± 0.05,0.027 ± 0.002 nM,–
Nc1ncc(C2CC3CCC2N3)cc1I (centres unmarked) [RTI-7527-57],–,1.47 ± 0.12 nM,"Hill Slope (α4β2 nAChRs; Table 1, [3H]epibatidine binding, rat cerebral cortex, listed as 24): 1.07 ± 0.14"
NC1C2CCC1C(c1ccc(Cl)nc1)C2 (centres unmarked) [compound 3],1.2 ± 0.04,8.2 ± 0.08 nM,–
Fc1ncc(C2CC3CCC2N3)cc1Cl (centres unmarked) [compound 37],0.8 ± 0.004,0.02 ± 0.0003 nM,–
Fc1ncc(C2CC3CCC2N3)cc1I (centres unmarked) [compound 39],–,0.076 ± 0.004 nM,Hill Slope (α4β2 nAChRs): 1.0 ± 0.05
COc1cccc(-c2cc(C3CC4CCC3N4)cnc2Cl)c1 (centres unmarked) [compound 45],0.8 ± 0.02,0.019 ± 0.005 nM,–
CON=C1C2CCC1C(c1ccc(Cl)nc1)C2 (centres unmarked) [compound 2],–,> 1000 nM,–
Nc1ncc(C2CC3CCC2N3)cc1-c1ccccc1 (centres unmarked) [RTI-7527-51],0.93 ± 0.03,0.33 ± 0.05 nM,–
Ic1ncc(C2CC3CCC2N3)cc1-c1ccccc1 (centres unmarked) [RTI-7527-3],0.84 ± 0.02,0.019 ± 0.002 nM,–
CN(C)c1ccc(C2CC3CCC2N3)cn1 (centres unmarked) [compound 19],1.0 ± 0.01,–,Ki (α4β2 nAChRs; [2]): 26.4 ± 1.4 nM
Fc1ncc(C2CC3CCC2N3)cc1-c1ccccc1 (centres unmarked) [compound 47],1.1 ± 0.04,0.14 ± 0.07 nM,–
Cc1nc(Cl)ccc1C1CC2CCC1N2 (centres unmarked) [compound 5],1.1 ± 0.03,256 ± 74 nM,–
Fc1cc(C2CC3CCC2N3)cnc1F (centres unmarked) [compound 38],1.0 ± 0.01,0.055 ± 0.001 nM,–
Nc1ncc(C2CC3CCC2N3)cc1-c1cccc([N+](=O)[O-])c1 (centres unmarked) [compound 42],–,0.047 ± 0.002 nM,Hill Slope (α4β2 nAChRs): 1.1 ± 0.09
Clc1ncc(C2CC3CCC2N3)cc1I (centres unmarked) [RTI-7527-4],0.83 ± 0.03,0.012 ± 0.0003 nM,–
COc1cccc(-c2cncc(C3CC4CCC3N4)c2)c1 (centres unmarked) [compound 46],0.9 ± 0.03,–,Ki (α4β2 nAChRs; [2]): 0.43 ± 0.05 nM
Clc1cncc(C2CC3CCC2N3)c1 (centres unmarked) [compound 35],0.9 ± 0.03,0.12 ± 0.006 nM,–
"Nc1ncc(C2CC3CCC2N3)cc1I (stereo not drawn) [RTI-7527-24, 2-exo-[5′-(3′-Iodo-2′-aminopyridinyl)]-7-azabicyclo[2.2.1]-heptane]",–,–,"Hill Slope (α4β2 nAChRs; Table 1, [3H]epibatidine binding, rat cerebral cortex, listed as 34): 1.08 ± 0.03; Ki (α4β2 nAChRs; [2]): 35.5 ± 5.4 nM"

# From patent US7615567B2, “Compounds and methods for promoting smoking cessation” (priority 2000, dated 2009)
